Common to all, as to format: biochemical
What all share (conditions): uric acid; sodium borate buffer, pH 9.2

The subject of test [1] is Pig-baboon chimera (PBC) uricase, recombinant, pig uricase codons 1-225 joined in-frame to codons 226-304 of baboon uricase. The text has this: Pig-baboon chimera (PBC) uricase was constructed in order to gain higher expression, stability, and activity of the recombinant gene. […] The PBC uricase cDNA consists of the pig uricase codons 1-225 joined in-frame to codons 226-304 of baboon uricase.

Test [2] relates to Pig-baboon chimera (PBC) uricase variant PBC-ΔNC, recombinant, N-terminal six residues and C-terminal tri-peptide removed, SEQ ID NO. 12.
Procedure: (§1) Activity of uricase was measured by a UV method. […] Uricase potency is expressed in activity units per mg protein (U/mg).
(§2) The absorbance change with time (ΔA292 per minute) was derived from the linear portion of the curve.
(§3) The specific activity (potency) of uricase was calculated by dividing the activity in U/ml with protein concentration in mg/ml.
In test [3] the target is T1, Aspergillus flavus uricase, native, commercial preparation (Merck) (Aspergillus flavus, UniProt Q00511).
T1 sequence (Q00511 1-302): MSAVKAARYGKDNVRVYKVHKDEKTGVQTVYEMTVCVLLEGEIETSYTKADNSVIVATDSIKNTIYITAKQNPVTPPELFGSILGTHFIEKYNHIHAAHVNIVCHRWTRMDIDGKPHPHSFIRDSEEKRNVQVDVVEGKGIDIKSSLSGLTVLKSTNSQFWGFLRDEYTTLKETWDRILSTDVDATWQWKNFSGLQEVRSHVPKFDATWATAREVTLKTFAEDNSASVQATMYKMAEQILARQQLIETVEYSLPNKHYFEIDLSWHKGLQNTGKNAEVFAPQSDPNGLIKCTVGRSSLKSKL
Procedure: as §1, §2, §3

Test [4] has as its target T2, Pig uricase, native, commercial preparation (Sigma) (Sus scrofa, UniProt P16164).
T2 sequence (P16164 1-304): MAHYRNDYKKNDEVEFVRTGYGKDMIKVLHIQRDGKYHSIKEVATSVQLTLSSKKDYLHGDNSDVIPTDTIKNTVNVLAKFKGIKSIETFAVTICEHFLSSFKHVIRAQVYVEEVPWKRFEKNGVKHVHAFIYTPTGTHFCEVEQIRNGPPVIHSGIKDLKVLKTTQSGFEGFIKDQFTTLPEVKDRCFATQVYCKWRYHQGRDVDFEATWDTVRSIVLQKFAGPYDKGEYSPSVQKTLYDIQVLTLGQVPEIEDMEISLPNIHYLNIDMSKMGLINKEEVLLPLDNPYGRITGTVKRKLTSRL
Procedure: as §1, §2, §3

Each structure is given as a SMILES string.

What is called Km is the concentration of substrate that gives half-maximal velocity. Regarding `O=c1[nH]c(=O)c2[nH]c(=O)[nH]c2[nH]1` [Uric Acid, uric acid], the Michaelis constant (Km) was 4.87 µM in test [1], 4.3 µM in test [2], 23.5 µM in test [3] and 5.85 µM in test [4].

The values are drawn from patent US11781119B2, “Variant forms of urate oxidase and use thereof” (Horizon Therapeutics USA, Inc., priority 2005, dated 2023).
